Results reported in US9243281B2, “Neuroprotective chemicals and methods for identifying and using same” (Board of Regents of The University of Texas System, priority 2013, dated 2016).

How the values were obtained:
[1] = target: T1, p70 (NAMPT) (Homo sapiens, UniProt P43490); test: binding competition for photo-crosslinking of P7C3-S326 to p70 in H2122 cells; conditions: 0.3 μM P7C3-S326 plus 5 μM competitor, p70 band intensity, P7C3-S326 alone compared with plus competitor, vehicle 1.0
T1 construct: endogenous in cells; host or cells: H2122 lung cancer cells
T1 sequence (P43490 whole entry): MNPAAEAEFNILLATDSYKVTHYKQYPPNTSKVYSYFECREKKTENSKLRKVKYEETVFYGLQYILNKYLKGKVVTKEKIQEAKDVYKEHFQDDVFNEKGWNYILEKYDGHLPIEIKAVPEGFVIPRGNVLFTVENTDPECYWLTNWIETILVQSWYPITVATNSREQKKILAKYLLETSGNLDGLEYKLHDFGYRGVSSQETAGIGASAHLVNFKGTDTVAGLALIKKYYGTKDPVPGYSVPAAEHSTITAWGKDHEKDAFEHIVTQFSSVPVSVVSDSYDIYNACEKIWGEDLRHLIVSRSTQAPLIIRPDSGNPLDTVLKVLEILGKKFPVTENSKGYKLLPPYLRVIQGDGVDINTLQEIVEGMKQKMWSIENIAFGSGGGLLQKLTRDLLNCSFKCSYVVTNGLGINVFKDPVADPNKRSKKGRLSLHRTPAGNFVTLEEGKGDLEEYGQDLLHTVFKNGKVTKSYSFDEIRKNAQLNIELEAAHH
Description: Cultured cells were co-exposed to P7C3-S326 (0.3 uM) and the individual P7C3 variants (5 uM), exposed to UV light, lysed, clicked to a fluorescent dye and run on SDS gels (FIG. 11).
P7C3-S326 was diluted to 0.3 μM in culture medium to treat H2122 cells. After incubation at 37° C. for 2 hours, H2122 cells were irradiated for 15 minutes under 306 nm ultraviolet light in a Stratalinker 2400 (Stratagene). Cells were then harvested by dissolving in 1% SDS lysis buffer 50 mM HEPES, pH 8.0, 2 mM MgCl2, 10 mM KCl, 1% SDS, 50 units/ml of Benzonase (Sigma), supplemented with Sigmafast protease inhibitor (Sigma).
The reaction was incubated at room temperature with constant agitation at 1,000 rpm on a thermomixer (Eppendorf) for 1 hour. Samples were then mixed with SDS sample loading buffer and loaded on an 8% SDS-PAGE gel, separated, and imaged using a Typhoon imager (filter settings: excitation 533 nm, emission 555 nm, and high sensitivity).
H2122 cells were incubated with the P7C3-S326 (0.3 μM) in the absence or presence of P7C3 analogs for 2 hours following by UV crosslinking. […] The samples were run on SDS-PAGE gels scanned using a Typhoon Imager. The p70 band intensity was analyzed and quantified by Image J, and the relative intensity in each assay was normalized to that of the DMSO control.

[2] = system: hippocampal neurogenesis (Dentate Gyrus); test: in vivo neurogenesis assay (BrdU+ cells in dentate gyrus); parameters: species or system mice; conditions: living mice; vehicle (DMSO) 7.3
From the text: The screen was simple in concept. With help from chemists in the Department of Biochemistry at UTSWMC, we selected 1,000 druglike chemicals from the 250,000 compounds in our high throughput screening center. The compounds were selected to preserve representative chemical diversity of the entire library. They were further selected to enhance the representation of chiral molecules, and to avoid untoward chemical properties such as reactive moieties. The 1,000 molecules were randomly pooled into groups of ten, and each pool was administered directly into the left ventricle of two adult mice. Intracranial delivery was facilitated by stereotactic positioning of a canula fed directly by an Alzet mini-pump containing the mixture of ten chemicals. The drug mixture was administered over a week-long period at concentrations anticipated to deliver mid-nanomolar levels of the ten test compounds. Daily injections of the thymidine analog, bromodeoxyuridine (BrdU), were coadministered in order to monitor the formation of new hippocampal nerve cells. Following compound administration, animals were sacrificed such that brain tissue could be recovered, sectioned and stained with antibodies to BrdU. […]

CC(C(N)=O)n1c2ccc(Br)cc2c2cc(Br)ccc21 (centres unmarked) [S220]
Binding competition [1]: 2.9 | Neurogenesis # BrdU+ Cells (X10E06)/mm3 Dentate Gyrus [2]: 10.5 (X10E06)/mm3

N#Cc1cc2c3cc(Br)ccc3n(CC(O)COc3ccccc3)c2cn1 (centres unmarked) [S192]
Binding competition [1]: 4.2 | Neurogenesis # BrdU+ Cells (X10E06)/mm3 Dentate Gyrus [2]: 10.5 (X10E06)/mm3

COc1ccc(SCC(O)Cn2c3ccc(Br)cc3c3cc(Br)ccc32)cc1 (centres unmarked) [S78]
Binding competition [1]: 2.7 | Neurogenesis # BrdU+ Cells (X10E06)/mm3 Dentate Gyrus [2]: 14.1 (X10E06)/mm3

Cc1ccc2[nH]c3ccc(Br)cc3c2c1 [S228]
Binding competition [1]: 2.0 | Neurogenesis # BrdU+ Cells (X10E06)/mm3 Dentate Gyrus [2]: 20.2 (X10E06)/mm3

COc1ccc(SCC(F)Cn2c3ccc(Br)cc3c3cc(Br)ccc32)cc1 (centres unmarked) [S80]
Binding competition [1]: 0.9 | Neurogenesis # BrdU+ Cells (X10E06)/mm3 Dentate Gyrus [2]: 13.0 (X10E06)/mm3

COc1cccc(NC[C@@H](O)Cn2c3ccc(Br)cc3c3cc(Br)ccc32)c1 [S17]
Binding competition [1]: 1.9 | Neurogenesis # BrdU+ Cells (X10E06)/mm3 Dentate Gyrus [2]: 14.9 (X10E06)/mm3

N#Cc1ccc(N(CC(O)COc2ccccc2)c2ccc(Br)cc2)nc1 (centres unmarked) [S136]
Binding competition [1]: 5.7 | Neurogenesis # BrdU+ Cells (X10E06)/mm3 Dentate Gyrus [2]: 6.5 (X10E06)/mm3

CN(C)C[C@@H](O)CN1c2ccccc2CCc2ccccc21 [S182]
Binding competition [1]: 1.1 | Neurogenesis # BrdU+ Cells (X10E06)/mm3 Dentate Gyrus [2]: 6.8 (X10E06)/mm3

Nc1ccc(SCC(O)Cn2c3ccc(Br)cc3c3cc(Br)ccc32)cc1 (centres unmarked) [S96]
Binding competition [1]: 3.9 | Neurogenesis # BrdU+ Cells (X10E06)/mm3 Dentate Gyrus [2]: 8.7 (X10E06)/mm3

CC(O)(COc1ccccc1)Cn1c2ccc(C#N)cc2c2cc(C#N)ccc21 (centres unmarked) [S177]
Binding competition [1]: 4.3 | Neurogenesis # BrdU+ Cells (X10E06)/mm3 Dentate Gyrus [2]: 13.9 (X10E06)/mm3

COc1ccc(OCC(O)Cn2c3ccc(Br)cc3c3cc(Br)ccc32)cc1 (centres unmarked) [S49]
Neurogenesis # BrdU+ Cells (X10E06)/mm3 Dentate Gyrus [2]: 12.0 (X10E06)/mm3

COc1ccc(S(=O)(=O)CC(O)Cn2c3ccc(Br)cc3c3cc(Br)ccc32)cc1 (centres unmarked) [S84]
Binding competition [1]: 1.2 | Neurogenesis # BrdU+ Cells (X10E06)/mm3 Dentate Gyrus [2]: 12.8 (X10E06)/mm3

COc1cccc(NCC(O)Cn2c3ccc(C#N)cc3c3cc(C#N)ccc32)c1 (centres unmarked) [S65]
Binding competition [1]: 3.3 | Neurogenesis # BrdU+ Cells (X10E06)/mm3 Dentate Gyrus [2]: 12.9 (X10E06)/mm3

OC(COc1ccccn1)Cn1c2ccc(Br)cc2c2cc(Br)ccc21 (centres unmarked) [S147]
Binding competition [1]: 3.4 | Neurogenesis # BrdU+ Cells (X10E06)/mm3 Dentate Gyrus [2]: 13.3 (X10E06)/mm3

COc1cccc(NCC(O)Cn2c3ccc(Br)cc3c3cc(N=[N+]=[N-])ccc32)c1 (centres unmarked) [S47]
Binding competition [1]: 5.5 | Neurogenesis # BrdU+ Cells (X10E06)/mm3 Dentate Gyrus [2]: 10.1 (X10E06)/mm3

OC(COc1ccccc1)Cn1c2ccc(Br)cc2c2ncccc21 (centres unmarked) [S194]
Binding competition [1]: 5.1 | Neurogenesis # BrdU+ Cells (X10E06)/mm3 Dentate Gyrus [2]: 8.1 (X10E06)/mm3

CCOC(=O)c1cc2c3cc(Br)ccc3n(CC(O)COc3ccccc3)c2cn1 (centres unmarked) [S174]
Binding competition [1]: 1.8 | Neurogenesis # BrdU+ Cells (X10E06)/mm3 Dentate Gyrus [2]: 9.3 (X10E06)/mm3

Cc1c(C)n(CC(O)CNc2ccccc2)c2ccc(Br)cc12 (centres unmarked) [S18]
Binding competition [1]: 1.7 | Neurogenesis # BrdU+ Cells (X10E06)/mm3 Dentate Gyrus [2]: 10.9 (X10E06)/mm3

O=C(CCCCCC1SCC2NC(=O)NC21)NCCCCCOc1cccc(NCC(O)Cn2c3ccc(Br)cc3c3cc(Br)ccc32)c1 (centres unmarked) [S219]
Binding competition [1]: 3.1 | Neurogenesis # BrdU+ Cells (X10E06)/mm3 Dentate Gyrus [2]: 8.4 (X10E06)/mm3

COc1cccc(NCC(O)Cn2c3ccc(Cl)cc3c3cc(Cl)ccc32)c1 (centres unmarked) [S15]
Binding competition [1]: 5.3 | Neurogenesis # BrdU+ Cells (X10E06)/mm3 Dentate Gyrus [2]: 7.6 (X10E06)/mm3

N#Cc1ccc2c(c1)c1cc(C#N)ccc1n2CC(O)COc1ccccc1 (centres unmarked) [S111]
Binding competition [1]: 4.1 | Neurogenesis # BrdU+ Cells (X10E06)/mm3 Dentate Gyrus [2]: 12.3 (X10E06)/mm3

CNCC(F)CN1c2ccccc2CCc2ccccc21 (centres unmarked) [S152]
Binding competition [1]: 1.6 | Neurogenesis # BrdU+ Cells (X10E06)/mm3 Dentate Gyrus [2]: 13.4 (X10E06)/mm3

O=C(COc1ccc(SCC(O)Cn2c3ccc(Br)cc3c3cc(Br)ccc32)cc1)NCc1ccccc1 (centres unmarked) [S99]
Binding competition [1]: 2.5 | Neurogenesis # BrdU+ Cells (X10E06)/mm3 Dentate Gyrus [2]: 7.6 (X10E06)/mm3

COc1ccc(OCC2(Cn3c4ccc(Br)cc4c4cc(Br)ccc43)NN2)cc1 [S57]
Neurogenesis # BrdU+ Cells (X10E06)/mm3 Dentate Gyrus [2]: 11.9 (X10E06)/mm3

O=C(Cn1c2ccc(Br)cc2c2cc(Br)ccc21)NO [S231]
Binding competition [1]: 1.7 | Neurogenesis # BrdU+ Cells (X10E06)/mm3 Dentate Gyrus [2]: 13.1 (X10E06)/mm3

OC(COc1ccccc1)Cn1c2ccccc2c2cc(Br)ccc21 (centres unmarked) [S150]
Binding competition [1]: 4.1 | Neurogenesis # BrdU+ Cells (X10E06)/mm3 Dentate Gyrus [2]: 8.4 (X10E06)/mm3

C#Cc1ccc2c(c1)c1cc(C#C)ccc1n2CC(O)CNc1cccc(OC)c1 (centres unmarked) [S64]
Neurogenesis # BrdU+ Cells (X10E06)/mm3 Dentate Gyrus [2]: 8.6 (X10E06)/mm3

CN(C)CC(F)CN1c2ccccc2CCc2ccccc21 (centres unmarked) [S148, reference compound]
Binding competition [1]: 1.3 | Neurogenesis # BrdU+ Cells (X10E06)/mm3 Dentate Gyrus [2]: 11.3 (X10E06)/mm3

OC(CSc1ccccc1)Cn1c2ccc(Br)cc2c2cc(Br)ccc21 (centres unmarked) [S7]
Binding competition [1]: 2.0 | Neurogenesis # BrdU+ Cells (X10E06)/mm3 Dentate Gyrus [2]: 15.5 (X10E06)/mm3

OC(COc1ccccc1)CN1c2ccccc2CCc2ccccc21 (centres unmarked) [S135]
Binding competition [1]: 3.4 | Neurogenesis # BrdU+ Cells (X10E06)/mm3 Dentate Gyrus [2]: 7.1 (X10E06)/mm3

OC(CNc1ccncc1)Cn1c2ccc(Br)cc2c2cc(Br)ccc21 (centres unmarked) [S45]
Binding competition [1]: 1.2 | Neurogenesis # BrdU+ Cells (X10E06)/mm3 Dentate Gyrus [2]: 8.0 (X10E06)/mm3

OC(CNC1CCCC1)Cn1c2ccc(Br)cc2c2cc(Br)ccc21 (centres unmarked) [S176]
Binding competition [1]: 4.1

CC(C)(C)OC(=O)CCOCCOCCOCCOc1ccc(S(=O)(=O)CC(O)Cn2c3ccc(Br)cc3c3cc(Br)ccc32)cc1 (centres unmarked) [S130]
Binding competition [1]: 2.9

COc1cccc(N(C)CC(O)Cn2c3ccc(Br)cc3c3cc(Br)ccc32)c1 (centres unmarked) [S1]
Neurogenesis # BrdU+ Cells (X10E06)/mm3 Dentate Gyrus [2]: 10.8 (X10E06)/mm3

OC(CNc1ccccc1)Cn1c2ccc(C(F)(F)F)cc2c2cc(C(F)(F)F)ccc21 (centres unmarked) [S75]
Binding competition [1]: 2.5

CC(NC(C)(C)C)C(=O)c1cccc(Cl)c1 (centres unmarked) [S125, Wellbutrin, reference compound]
Binding competition [1]: 1.1

Fc1ccc([C@@H]2CCNC[C@H]2COc2ccc3c(c2)OCO3)cc1 [S120, Paxil, reference compound]
Binding competition [1]: 1.3

Brc1ccc2[nH]c3ccc(Br)cc3c2c1 [S162]
Binding competition [1]: 2.3

CN(C)C[C@H](O)CN1c2ccccc2CCc2ccccc21 [S181]
Binding competition [1]: 0.9

Brc1ccc2c(c1)c1cc(Br)ccc1n2CCNc1ccccc1 [S115]
Binding competition [1]: 3.7

FC(CNc1ccccc1)Cn1c2ccc(Br)cc2c2cc(Br)ccc21 (centres unmarked) [S55]
Neurogenesis # BrdU+ Cells (X10E06)/mm3 Dentate Gyrus [2]: 13.8 (X10E06)/mm3

O=C(COc1cccc(S(=O)(=O)CC(O)Cn2c3ccc(Br)cc3c3cc(Br)ccc32)c1)NCc1ccccc1 (centres unmarked) [S102]
Neurogenesis # BrdU+ Cells (X10E06)/mm3 Dentate Gyrus [2]: 8.9 (X10E06)/mm3

OC(CCn1c2ccc(Br)cc2c2cc(Br)ccc21)CNc1ccccc1 (centres unmarked) [S26]
Neurogenesis # BrdU+ Cells (X10E06)/mm3 Dentate Gyrus [2]: 7.5 (X10E06)/mm3

OC(Cn1c2ccccc2c2ccccc21)Cn1c2ccc(Br)cc2c2cc(Br)ccc21 (centres unmarked) [S35]
Neurogenesis # BrdU+ Cells (X10E06)/mm3 Dentate Gyrus [2]: 8.6 (X10E06)/mm3

O=C(Cn1c2ccc(Br)cc2c2cc(Br)ccc21)Nc1ccccc1 [S112]
Binding competition [1]: 1.2

O=C(O)Cn1c2ccc(Br)cc2c2cc(Br)ccc21 [S165]
Binding competition [1]: 1.3

CN(C)CCCN1c2ccccc2CCc2ccccc21.Cl [S88, Imipramine, reference compound]
Neurogenesis # BrdU+ Cells (X10E06)/mm3 Dentate Gyrus [2]: 7.8 (X10E06)/mm3

Cn1c2ccc(Br)cc2c2cc(Br)ccc21 [S163]
Binding competition [1]: 2.5

OC(CNc1cccc2ccccc12)Cn1c2ccccc2c2ccccc21 (centres unmarked) [S180]
Binding competition [1]: 3.2
